Laboratory results as given in patent US8343543B2, “Lipase inhibiting composition” (Hoffmann-La Roche Inc., priority 2001, dated 2013).

Assay: Orlistat transfer into oil in vitro
Assay type: physicochemical
Conditions: after 10 min
Method: Orlistat (4 mg) suspensions stabilized by sucroseesters (2 mg) were transferred into 5 ml of a 10% oil in water emulsion (pH value 4.5; oil components: olive oil and cream respectively). The dispersion underwent end-over end mixing for a desired period of time. The oil phase was separated by cold centrifugation and the orlistat content in the oil phase was determined by HPLC. For comparison, an adequate experiment was also performed with a suspension of XENICAL® brand of orlistat-containing pharmaceutical composition. L-1695, P-1670, S-1670, O-1570 are commercial sucroseesters (Sucroselaurate, Sucrosepalmitate, Sucrosestearate, Sucroseoleate respectively) from Mitsubishi-Kagaku Foods, Japan.

For `CCCCCCCCCCC[C@@H](C[C@@H]1OC(=O)[C@H]1CCCCCC)OC(=O)[C@H](CC(C)C)NC=O` [orlistat], the “transfer into olive oil, times more efficient than transfer into cream” value was 7.
